Data as given in US5914319A, “Antithrombotic agents” (Eli Lilly and Company, priority 1995, dated 1999).
Where a name gives a salt, the structure may show the parent alone.

Experiments:
Format in all cases: biochemical
Human plasma [1] = test: Human plasma anticoagulation, activated partial thromboplastin time (APTT); settings: concentration required to double the APTT, linear extrapolation
Experimental: (§1) Dog plasma and rat plasma is obtained from conscious mixed-breed hounds (either sex, Hazelton-LRE, Kalamazoo, Mich., U.S.A.) or from anesthetized male Sprague-Dawley rats (Harlan Sprague-Dawley, Inc., Indianapolis, Ind., U.S.A.) by venipuncture into 3.8 percent citrate. Fibrinogen is prepared from in-date ACD human blood as the fraction I-2 according to previous procedures and specifications. […] Human fibrinogen is also purchased as 98 percent pure/plasmin free from American Diagnostica, Greenwich, Conn. Coagulation reagents ACTIN, Thromboplastin, and Human plasma are from Baxter Healthcare Corp., Dade Division, Miami, Fla. Bovine thrombin from Parke-Davis ([…], Mich.) is used for coagulation assays in plasma.
(§2) Coagulation assay procedures are as previously described. […] A CoAScreener coagulation instrument (American LABor, Inc.) is used for all coagulation assay measurements. The prothrombin time (PT) is measured by adding 0.05 mL saline and 0.05 mL Thromboplastin-C reagent to 0.05 mL test plasma. The activated partial thromboplastin time (APTT) is measured by incubation of 0.05 mL test plasma with 0.05 mL Actin reagent for 120 seconds followed by 0.05 mL CaCl2 (0.02M). The thrombin time (TT) is measured by adding 0.05 mL saline and 0.05 mL thrombin (10 NIH units/mL) to 0.05 mL test plasma. The compounds of Formula I are added to human or animal plasma over a wide range of concentrations to determine prolongation effects on the APTT, PT, and TT assays. Linear extrapolations are performed to estimate the concentrations required to double the clotting time for each assay.

Human plasma [2] = test: Human plasma anticoagulation, prothrombin time (PT); settings: concentration required to double the PT, linear extrapolation
Experimental: as §1, §2

Human plasma [3] = test: Human plasma anticoagulation, thrombin time (TT); settings: concentration required to double the thrombin time, linear extrapolation
Experimental: as §1, §2

Compound | Human Plasma Anticoagulation 2× Clotting time (ng/mL) APTT (Human plasma [1]) | Human Plasma Anticoagulation 2× Clotting time (ng/mL) PT (Human plasma [2]) | Human Plasma Anticoagulation 2× Clotting time (ng/mL) TT (Human plasma [3])
1-Piq-Pro-p-NHCH2 C6 H4 C(NH)NH2.2HCl [Example 18] | 79 ng/mL | 170 ng/mL | 7 ng/mL
Cl.NC(N)=NC/C=C/CNC(=O)[C@@H]1CCCN1C(=O)[C@H](N)Cc1ccccc1 (relative stereo) [Example 8, D-Phe-Pro-NHCH2 -trans-CH=CHCH2 NHC(NH)NH2.HCl] | – | – | 130 ng/mL
Cl.NC[C@H]1CC[C@H](CNC(=O)[C@@H]2CCCN2C(=O)[C@H](N)Cc2ccccc2)CC1 (relative stereo) [Example 12, D-Phe-Pro-NHCH2 -trans-4-(aminomethyl)cyclohexane.HCl] | – | – | 1,700 ng/mL
N=C(N)c1ccc(CNC(=O)[C@@H]2C[C@H](Oc3ccccc3)CN2C(=O)[C@H]2CCCCN2)cc1 (relative stereo) [Example 22, D-hPro-Pro(4-cis-PhO)-p-NHCH2 C6 H4 C(NH)NH2.2HCl] | 2,300 ng/mL | 1,000 ng/mL | 170 ng/mL
N=C(N)c1ccc(CNC(=O)[C@@H]2C[C@@H]3CCCC[C@@H]3N2C(=O)[C@H]2C[C@H]3CCCC[C@H]3CN2)cc1 (relative stereo) [Example 43, D-3-Piq-cis-Ohi-p-NHCH2 C6 H4 C(NH)NH2.2HCl] | 1,100 ng/mL | 930 ng/mL | 280 ng/mL
CCS(=O)(=O)N[C@H](Cc1ccccc1)C(=O)N1[C@H](C(=O)NCc2ccc(C(=N)N)cc2)C[C@@H]2CCCC[C@@H]21 (relative stereo) [Example 45, EtSO2 -Phe-cis-Ohi-p-NHCH2 C6 H4 C(NH)NH2.HCl] | 200 ng/mL | 330 ng/mL | 8 ng/mL
N=C(N)c1ccc(CNC(=O)[C@@H]2C[C@@H]3CCCC[C@@H]3N2C(=O)[C@@H](Cc2ccccc2)NCC(=O)O)cc1 (relative stereo) [Example 47, HOOCCH2 -D-Phe-cis-Ohi-p-NHCH2 C6 H4 C(NH)NH2.HCl] | 140 ng/mL | 270 ng/mL | 12. ng/mL
CCS(=O)(=O)N[C@H](CC1CCCCC1)C(=O)N1CCC[C@H]1C(=O)NCCCCN=C(N)N.Cl [Example 2, EtSO2 -D-Cha-Pro-Agm.HCl] | – | – | 170 ng/mL
CCOC(=O)N[C@H](Cc1ccccc1)C(=O)N1CCC[C@H]1C(=O)NCCCCN=C(N)N.Cl [Example 3, EtOCO-D-Phe-Pro-Agm.HCl] | – | – | 590 ng/mL
N=C(N)NCCCCCCNC(=O)[C@@H]1CCCN1C(=O)[C@H](N)Cc1ccccc1 [Example 5, D-Phe-Pro-NH(CH2)6 NHC(NH)NH2.HCl] | – | – | 30,000 ng/mL
N=C(N)NCCCCCNC(=O)[C@@H]1CCCN1C(=O)[C@H](N)Cc1ccccc1 [Example 6, D-Phe-Pro-NH(CH2)5 NHC(NH)NH2.HCl] | – | – | 390 ng/mL
N=C(N)NCCCNC(=O)[C@@H]1CCCN1C(=O)[C@H](N)Cc1ccccc1 [Example 7, D-Phe-Pro-NH(CH2)3 NHC(NH)NH2.HCl] | – | – | 490 ng/mL
N=C(N)NCc1ccc(CNC(=O)[C@@H]2CCCN2C(=O)[C@H](N)Cc2ccccc2)cc1 [Example 9, D-Phe-Pro-p-NHCH2 C6 H4 CH2 NHC(NH)NH2.2TFA] | – | – | > 91,000 ng/mL
NCc1ccc(CNC(=O)[C@@H]2CCCN2C(=O)[C@H](N)Cc2ccccc2)cc1 [Example 10, D-Phe-Pro-p-NHCH2 C6 H4 CH2 NH2.HCl] | – | – | 420 ng/mL
Cl.NCc1cccc(CNC(=O)[C@@H]2CCCN2C(=O)[C@H](N)Cc2ccccc2)c1 [Example 11, D-Phe-Pro-m-NHCH2 C6 H4 CH2 NH2.HCl] | – | – | 8,800 ng/mL
Nc1ccc(CNC(=O)[C@@H]2CCCN2C(=O)[C@H](N)Cc2ccccc2)cc1 [Example 13, D-Phe-Pro-p-NHCH2 C6 H4 NH2.HCl] | – | – | 660 ng/mL
Cl.Nc1ccc(CCNC(=O)[C@@H]2CCCN2C(=O)[C@H](N)Cc2ccccc2)cc1 [Example 14, D-Phe-Pro-p-NHCH2 CH2 C6 H4 NH2.HCl] | – | – | 21,000 ng/mL
Cl.N=C(N)c1cccc(CNC(=O)[C@@H]2CCCN2C(=O)[C@H](N)Cc2ccccc2)c1 [Example 16, D-Phe-Pro-m-NHCH2 C6 H4 C(NH)NH2.0.75HCl] | 8,600 ng/mL | 8,500 ng/mL | 650 ng/mL
N=C(N)c1ccc(CNC(=O)[C@@H]2CCCN2C(=O)[C@H]2C[C@H]3CCCC[C@H]3CN2)cc1 [Example 19, D-3-Piq-Pro-p-NHCH2 C6 H4 C(NH)NH2.3HCl] | 300 ng/mL | 540 ng/mL | 58 ng/mL
CCS(=O)(=O)N[C@H](Cc1ccccc1)C(=O)N1CCC[C@H]1C(=O)NCc1cccc(C(=N)N)c1 [Example 24, EtSO2 -D-Phe-Pro-m-NHCH2 --C6 H4 C(=NH)NH2.HCl] | 25,900 ng/mL | 25,000 ng/mL | 1,000 ng/mL
N=C(N)c1cccc(CNC(=O)[C@@H]2CCCN2C(=O)[C@@H]2NCC[C@@H]3CCCC[C@@H]32)c1 [Example 25, D-1-Piq-Pro-m-NHCH2 --C6 H4 C(=NH)NH2.HCl] | 34,600 ng/mL | 40,400 ng/mL | 1,430 ng/mL
CCS(=O)(=O)N[C@H](Cc1ccccc1)C(=O)N1CCC[C@H]1C(=O)NCCc1ccc(C(=N)N)cc1 [Example 26, EtSO2 -D-Phe-Pro-p-NHCH2 CH2 --C6 H4 C(=NH)NH2.HCl] | 870 ng/mL | 750 ng/mL | 37 ng/mL
CCS(=O)(=O)N[C@H](Cc1ccccc1)C(=O)N1CCC[C@H]1C(=O)NCCc1cccc(C(=N)N)c1.Cl [Example 27, EtSO2 -D-Phe-Pro-m-NHCH2 CH2 --C6 H4 C(=NH)NH2.HCl] | 27,800 ng/mL | 27,000 ng/mL | 1,940 ng/mL
N=C(N)c1ccc(CCNC(=O)[C@@H]2CCCN2C(=O)[C@@H]2NCC[C@@H]3CCCC[C@@H]32)cc1 [Example 28, 1-Piq-Pro-p-NHCH2 CH2 --C6 H4 C(=NH)NH2.2HCl] | 8,100 ng/mL | 8,300 ng/mL | 520 ng/mL
N=C(N)c1cccc(CCNC(=O)[C@@H]2CCCN2C(=O)[C@@H]2NCC[C@@H]3CCCC[C@@H]32)c1 [Example 29, 1-Piq-Pro-m-NHCH2 CH2 --C6 H4 C(=NH)NH2.2HCl] | 9,800 ng/mL | 15,800 ng/mL | 750 ng/mL
Nc1ccc(CNC(=O)[C@@H]2CCCN2C(=O)[C@@H](CC2CCCCC2)NCC(=O)O)cc1 [Example 62, HO2 CCH2 -D-Cha-Pro-4-NHCH2 C6 H4 NH2.HCl] | – | – | 54 ng/mL
Nc1ccc(CCNC(=O)[C@@H]2CCCN2C(=O)[C@@H](CC2CCCCC2)NCC(=O)O)cc1 [Example 63, HO2 CCH2 -D-Cha-Pro-4-NHCH2 CH2 C6 H4 NH2.HCl] | – | – | 680 ng/mL
Cl.N=C(N)c1cc(CNC(=O)[C@@H]2CCCN2C(=O)[C@@H](CC2CCCCC2)NCC(=O)O)cs1 [Example 65, HO2 CCH2 -D-Cha-Pro-4-NHCH2 -2-amidinothiophene.HCl] | 48 ng/mL | – | 1 ng/mL
D-Phe-Pro-p-NHCH2 C6 H4 C(NH)NH2.HCl [Example 15] | 89 ng/mL | – | 9 ng/mL
